From patent US5623050A, “Stable polypeptides having c-AMP production enhancing activity and the use thereof” (Takeda Chemical Industries, Ltd., priority 1991, dated 1997)

Experiment: Oxidized product content by HPLC on storage
Format: physicochemical
Description: In order to clarify that the polypeptides of the present invention are not easily oxidized, oxidized product content (%) of Arg^17 -PACAP27 obtained in Example 1 below were assayed when stored both in lyophylization and in aqueous acetic acid. The assay of the oxidized product content (%) were conducted on High Performance Liquid Chromatography (HPLC). Conditions of HPLC are as follows:
Solution A 0.1% aqueous trifluoroacetic acid
Solution B acetonitrile containing 0.1% trifluoroacetic acid
A linear gradient elution from solution A to solution
Elution time of Arg^17 -PACAP27:19.9 min

CC[C@H](C)[C@H](NC(=O)CNC(=O)[C@H](CC(=O)O)NC(=O)[C@H](CO)NC(=O)[C@@H](N)Cc1c[nH]cn1)C(=O)N[C@@H](Cc1ccccc1)C(=O)N[C@H](C(=O)N[C@@H](CC(=O)O)C(=O)N[C@@H](CO)C(=O)N[C@@H](Cc1ccc(O)cc1)C(=O)N[C@@H](CO)C(=O)N[C@@H](CCCNC(=N)N)C(=O)N[C@@H](Cc1ccc(O)cc1)C(=O)N[C@@H](CCCNC(=N)N)C(=O)N[C@@H](CCCCN)C(=O)N[C@@H](CCC(N)=O)C(=O)N[C@@H](CCCNC(=N)N)C(=O)N[C@@H](C)C(=O)N[C@H](C(=O)N[C@@H](CCCCN)C(=O)N[C@@H](CCCCN)C(=O)N[C@@H](Cc1ccc(O)cc1)C(=O)N[C@@H](CC(C)C)C(=O)N[C@@H](C)C(=O)N[C@@H](C)C(=O)N[C@H](C(=O)N[C@@H](CC(C)C)C(N)=O)C(C)C)C(C)C)[C@@H](C)O [Arg^17 -PACAP27]
0%: Oxidized product (%) just after synthesizing (just after synthesizing) | Oxidized product (%) aqueous acetic acid (stored in aqueous acetic acid) | Oxidized product (%) lyophilization store (stored in lyophilization)
